Measured values published in patent publication US20260166021A1, “POLYMORPHIC FORMS OF A SOLUBLE EPOXIDE HYDROLASE INHIBITOR AND FORMULATIONS THEREOF” (EicOsis, LLC, priority 2022, published 2026).

Columns and labels:
Assay type in all cases: physicochemical
[1] = Differential scanning calorimetry (DSC): heat of fusion, thermal events
Experimental: Differential scanning calorimetry analyses were performed on each sample “as is.” Unless otherwise specified, samples were weighed in an aluminum pan, covered with a pierced lid, and then crimped and analyzed from 30-300° C. ramped at 10° C./min.
The DSC data were used to determine the heat of fusion for Forms A, B, D, and F, based on their heats of fusion as measured during conversion from Form C.

[2] = Hygroscopic analyses: stability at 75% relative humidity and 40° C. (XRD); details: open vial, after 4 and 14 days
Experimental: To further evaluate physical stability, Form D was tested for stability in humid conditions. […] FIG. 84 summarizes XRD analyses used to monitor the polymorph over the 14-day experiment. In this figure, the top panel provides a representative XRD spectrum of Form D, the second from the top panel is an XRD spectrum of the starting material, the third from the top panel is an XRD spectrum of the starting material after 4 days of humidity exposure, and the bottom panel is an XRD spectrum of the starting material after 14 days of humidity exposure.

[3] = PEG-stability analyses: Form C/Form D mixture slurried in PEG300 with water; details: 1:1 mixture of Forms C and D slurried in PEG300; XRD
Experimental: Of particular interest was whether Form D would convert to a hydrate (e.g., Form C) in the presence of water. To investigate the critical water concentration for phase interconversion between Pattern C and D, a series experiments were designed (as summarized in TABLE 16). A 1:1 mixture of Forms C and D was prepared and slurried in PEG 300 with different levels of water concentrations. Phase transformations were monitored with XRD, and are summarized in FIG. 85, which (from top to bottom) provides XRD of Form C, Form D, the mixture following incubation in PEG300 containing 75% water, the mixture following incubation in PEG300 containing 50% water, the mixture following incubation in PEG300 containing 25% water, the mixture following incubation in PEG300 containing 10% water, and the mixture following incubation in PEG300 containing 5% water. […] Form D is the stable form in PEG300 with less than 50% water.

[4] = Excipient stability analyses (HPLC impurities)
Experimental: For the excipient stability analyses, approximately 10-20 mg Form D was incubated in PEG400, propylene glycol, D-a-Tocopherol polyethylene glycol 1000 succinate (Vitamin E TPGS), Gelucire® 44/14, hydrogenated castor oil, glyceryl caprylate/caprate(Capmul® MCM), ethoxylated solubilizers (Kolliphor® HS 15, Kolliphor® EL), nonionic surfactant (Labrasol), and diethylene glycol monoethyl ether (Transcutol® HP).

[5] = 50° C., Castor Oil, hydrogenated
[6] = Room Temperature, Capmul MCM, EP
[7] = Room Temperature, Capmul MCM, NF
[8] = Room Temperature, Castor Oil, hydrogenated*
[9] = Room Temperature, Gelucire 44/14
[10] = Room Temperature, Kolliphor HS-15
[11] = Room Temperature, Propylene glycol
[12] = Room Temperature, Vitamin E TPGS

CC[C@H](C)C(=O)N1CCC(NC(=O)Nc2ccc(OC(F)(F)F)c(F)c2)CC1 [Form D, (S)-1-(3-fluoro-4-(trifluoromethoxy)phenyl)-3-(1-(2-methylbutanoyl)piperidin-4-yl)urea]
None: Impurity, % (Day 1) ([4]; 50° C., Capmul MCM, EP) | Impurity, % (Day 3) ([4]; 50° C., Capmul MCM, EP) | Impurity, % (Day 1) ([4]; 50° C., Capmul MCM, NF) | Impurity, % (Day 3) ([4]; 50° C., Capmul MCM, NF) | Impurity, % (Day 1) [4, 5] | Impurity, % (Day 3) [4, 5] | Impurity, % (Day 1) ([4]; 50° C., Gelucire 44/14) | Impurity, % (Day 3) ([4]; 50° C., Gelucire 44/14) | Impurity, % (Day 1) ([4]; 50° C., Kolliphor EL) | Impurity, % (Day 3) ([4]; 50° C., Kolliphor EL) | Impurity, % (Day 1) ([4]; 50° C., Kolliphor HS-15) | Impurity, % (Day 3) ([4]; 50° C., Kolliphor HS-15) | Impurity, % (Day 1) ([4]; 50° C., Labrasol) | Impurity, % (Day 3) ([4]; 50° C., Labrasol) | Impurity, % (Day 1) ([4]; 50° C., PEG 400) | Impurity, % (Day 1) ([4]; 50° C., Propylene glycol) | Impurity, % (Day 3) ([4]; 50° C., Propylene glycol) | Impurity, % (Day 1) ([4]; 50° C., Transcutol) | Impurity, % (Day 3) ([4]; 50° C., Transcutol) | Impurity, % (Day 1) ([4]; 50° C., Vitamin E TPGS) | Impurity, % (Day 3) ([4]; 50° C., Vitamin E TPGS) | Impurity, % (Day 1) [4, 6] | Impurity, % (Day 3) [4, 6] | Impurity, % (Day 1) [4, 7] | Impurity, % (Day 3) [4, 7] | Impurity, % (Day 1) [4, 8] | Impurity, % (Day 3) [4, 8] | Impurity, % (Day 1) [4, 9] | Impurity, % (Day 3) [4, 9] | Impurity, % (Day 1) ([4]; Room Temperature, Kolliphor EL) | Impurity, % (Day 3) ([4]; Room Temperature, Kolliphor EL) | Impurity, % (Day 1) [4, 10] | Impurity, % (Day 3) [4, 10] | Impurity, % (Day 1) ([4]; Room Temperature, Labrasol) | Impurity, % (Day 3) ([4]; Room Temperature, Labrasol) | Impurity, % (Day 1) ([4]; Room Temperature, PEG 400) | Impurity, % (Day 1) [4, 11] | Impurity, % (Day 3) [4, 11] | Impurity, % (Day 1) ([4]; Room Temperature, Transcutol) | Impurity, % (Day 3) ([4]; Room Temperature, Transcutol) | Impurity, % (Day 1) [4, 12] | Impurity, % (Day 3) [4, 12]
143 °C melting of pattern D: DSC Thermal Events, Endo: melting of pattern D [1]
highest stability: stability rank among Forms A, B, D and F ([1]; DSC, TABLE 10)
67.51: Heat of fusion ([1]; DSC, scaled-up polymorphs, measured during conversion from Form C)
thermodynamically stable: thermodynamic stability (from heat of fusion) ([1]; DSC, TABLE 10)
unchanged: polymorph stability in humid conditions [2]
No impurities were observed: impurities after incubation in excipients ([4]; PEG400, propylene glycol, Vitamin E TPGS, Gelucire 44/14, hydrogenated castor oil, Capmul MCM, Kolliphor HS 15, Kolliphor EL, Labrasol, Transcutol HP, 4 or 7 days, room temperature or 50° C., HPLC)
50%: critical water concentration for phase interconversion between Pattern C and D [3]
